ChEMBL document CHEMBL5724914, “Linking interpersonal differences in gut microbiota composition and drug biotransformation activity” (2024)

Columns and labels:
[1] = human gut metagenome, 24 h, 2 µM
[2] = human gut metagenome, 24 h, 2 µM; remark: listed apart in the source
[3] = (§1) The drug is tested on Z-016 corresponding to mouse gut metagenome with ENA study accession number: PRJEB37062 and ENA sample accession number: ERS12561815 for biotransformation under anaerobic condition. The drug concentrations were measured over 9 timepoints collected between 0 and 24 hours of incubation by liquid-chromatography-coupled mass spectrometry (LC–MS); details: 2 µM
[4] = as §1, with “WLS-170” for “Z-016”, “human” for “mouse”, “ERS12561762” for “ERS12561815”; details: 2 µM
[5] = human gut metagenome, 24 h, 2 µM; remark: listed apart in the source
[6] = as §1, with “Z-006” for “Z-016”, “ERS12561806” for “ERS12561815”; details: 2 µM
[7] = as §1, with “WLS-038” for “Z-016”, “human” for “mouse”, “ERS12561745” for “ERS12561815”; details: 2 µM
[8] = as §1, with “Z-008” for “Z-016”, “to” for “to mouse gut”, “ERS12561808” for “ERS12561815”; details: 2 µM
[9] = as §1, with “WLS-007” for “Z-016”, “human” for “mouse”, “ERS12561742” for “ERS12561815”; details: 2 µM
[10] = human gut metagenome, 24 h, 2 µM; remark: listed apart in the source
[11] = as §1, with “Z-010” for “Z-016”, “to” for “to mouse gut”, “ERS12561810” for “ERS12561815”; details: 2 µM
[12] = human gut metagenome, 24 h, 2 µM; remark: listed apart in the source
[13] = as §1, with “WLS-350” for “Z-016”, “human” for “mouse”, “ERS12561789” for “ERS12561815”; details: 2 µM
[14] = human gut metagenome, 24 h, 2 µM; remark: listed apart in the source
[15] = as §1, with “Z-021” for “Z-016”, “to” for “to mouse gut”, “ERS12561820” for “ERS12561815”; details: 2 µM
[16] = human gut metagenome, 24 h, 2 µM; remark: listed apart in the source
[17] = as §1, with “Z-018” for “Z-016”, “pig” for “mouse”, “ERS12561817” for “ERS12561815”; details: 2 µM
[18] = as §1, with “Z-020” for “Z-016”, “rabbit” for “mouse”, “ERS12561819” for “ERS12561815”; details: 2 µM
[19] = as §1, with “Z-023” for “Z-016”, “to” for “to mouse gut”, “ERS12561822” for “ERS12561815”; details: 2 µM
[20] = as §1, with “Z-027” for “Z-016”, “to” for “to mouse gut”, “ERS12561826” for “ERS12561815”; details: 2 µM
Note: call rule not given here.

CN1CC(=O)N2[C@H](c3ccc4c(c3)OCO4)c3[nH]c4ccccc4c3C[C@@H]2C1=O
Bacterial Biotransformation [1]: Compound metabolized
Bacterial Biotransformation [2]: Compound NOT metabolized
Bacterial Biotransformation [3]: Compound metabolized
Bacterial Biotransformation [4]: Compound metabolized
Bacterial Biotransformation [5]: Compound metabolized
Bacterial Biotransformation [6]: Compound NOT metabolized
Bacterial Biotransformation [7]: Compound metabolized
Bacterial Biotransformation [8]: Compound NOT metabolized
Bacterial Biotransformation [9]: Compound metabolized
Bacterial Biotransformation [10]: Compound metabolized
Bacterial Biotransformation [11]: Compound metabolized
Bacterial Biotransformation [12]: Compound metabolized
Bacterial Biotransformation [13]: Compound metabolized
Bacterial Biotransformation [14]: Compound NOT metabolized
Bacterial Biotransformation [15]: Compound metabolized
Bacterial Biotransformation [16]: Compound metabolized
Bacterial Biotransformation [17]: Compound metabolized
Bacterial Biotransformation [18]: Compound NOT metabolized
Bacterial Biotransformation [19]: Compound metabolized
Bacterial Biotransformation [20]: Compound NOT metabolized

CCCc1nc(C(C)(C)O)c(C(=O)OCc2oc(=O)oc2C)n1Cc1ccc(-c2ccccc2-c2nnn[nH]2)cc1 [OLMESARTAN MEDOXOMIL]
Bacterial Biotransformation [1]: Compound metabolized
Bacterial Biotransformation [2]: Compound NOT metabolized
Bacterial Biotransformation [3]: Compound metabolized
Bacterial Biotransformation [4]: Compound metabolized
Bacterial Biotransformation [5]: Compound metabolized
Bacterial Biotransformation [6]: Compound metabolized
Bacterial Biotransformation [7]: Compound metabolized
Bacterial Biotransformation [8]: Compound metabolized
Bacterial Biotransformation [9]: Compound metabolized
Bacterial Biotransformation [10]: Compound metabolized
Bacterial Biotransformation [11]: Compound metabolized
Bacterial Biotransformation [12]: Compound metabolized
Bacterial Biotransformation [13]: Compound NOT metabolized
Bacterial Biotransformation [14]: Compound metabolized
Bacterial Biotransformation [15]: Compound metabolized
Bacterial Biotransformation [16]: Compound metabolized
Bacterial Biotransformation [17]: Compound metabolized
Bacterial Biotransformation [18]: Compound metabolized
Bacterial Biotransformation [19]: Compound metabolized
Bacterial Biotransformation [20]: Compound NOT metabolized

CC(CN1c2ccccc2Sc2ccccc21)N(C)C (stereo not given) [PROMETHAZINE]
Bacterial Biotransformation [1]: Compound NOT metabolized
Bacterial Biotransformation [2]: Compound metabolized
Bacterial Biotransformation [3]: Compound NOT metabolized
Bacterial Biotransformation [4]: Compound metabolized
Bacterial Biotransformation [5]: Compound metabolized
Bacterial Biotransformation [6]: Compound NOT metabolized
Bacterial Biotransformation [7]: Compound metabolized
Bacterial Biotransformation [8]: Compound NOT metabolized
Bacterial Biotransformation [9]: Compound NOT metabolized
Bacterial Biotransformation [10]: Compound NOT metabolized
Bacterial Biotransformation [11]: Compound metabolized
Bacterial Biotransformation [12]: Compound metabolized
Bacterial Biotransformation [13]: Compound metabolized
Bacterial Biotransformation [14]: Compound NOT metabolized
Bacterial Biotransformation [15]: Compound NOT metabolized
Bacterial Biotransformation [16]: Compound NOT metabolized
Bacterial Biotransformation [17]: Compound metabolized
Bacterial Biotransformation [18]: Compound NOT metabolized
Bacterial Biotransformation [19]: Compound metabolized
Bacterial Biotransformation [20]: Compound NOT metabolized

COc1ccccc1OCC(O)COC(N)=O (stereo not given) [METHOCARBAMOL]
Bacterial Biotransformation [1]: Compound NOT metabolized
Bacterial Biotransformation [2]: Compound NOT metabolized
Bacterial Biotransformation [3]: Compound NOT metabolized
Bacterial Biotransformation [4]: Compound NOT metabolized
Bacterial Biotransformation [5]: Compound NOT metabolized
Bacterial Biotransformation [6]: Compound NOT metabolized
Bacterial Biotransformation [7]: Compound NOT metabolized
Bacterial Biotransformation [8]: Compound NOT metabolized
Bacterial Biotransformation [9]: Compound NOT metabolized
Bacterial Biotransformation [10]: Compound NOT metabolized
Bacterial Biotransformation [11]: Compound NOT metabolized
Bacterial Biotransformation [12]: Compound NOT metabolized
Bacterial Biotransformation [13]: Compound NOT metabolized
Bacterial Biotransformation [14]: Compound NOT metabolized
Bacterial Biotransformation [15]: Compound NOT metabolized
Bacterial Biotransformation [16]: Compound NOT metabolized
Bacterial Biotransformation [17]: Compound NOT metabolized
Bacterial Biotransformation [18]: Compound NOT metabolized
Bacterial Biotransformation [19]: Compound NOT metabolized
Bacterial Biotransformation [20]: Compound NOT metabolized

C[C@@H](CO)NC(=O)[C@@H]1C=C2c3cccc4[nH]cc(c34)C[C@H]2N(C)C1.O=C(O)/C=C\C(=O)O [ERGONOVINE MALEATE]
Bacterial Biotransformation [1]: Compound metabolized
Bacterial Biotransformation [2]: Compound NOT metabolized
Bacterial Biotransformation [3]: Compound NOT metabolized
Bacterial Biotransformation [4]: Compound metabolized
Bacterial Biotransformation [5]: Compound metabolized
Bacterial Biotransformation [6]: Compound NOT metabolized
Bacterial Biotransformation [7]: Compound metabolized
Bacterial Biotransformation [8]: Compound NOT metabolized
Bacterial Biotransformation [9]: Compound NOT metabolized
Bacterial Biotransformation [10]: Compound metabolized
Bacterial Biotransformation [11]: Compound NOT metabolized
Bacterial Biotransformation [12]: Compound metabolized
Bacterial Biotransformation [13]: Compound metabolized
Bacterial Biotransformation [14]: Compound metabolized
Bacterial Biotransformation [15]: Compound NOT metabolized
Bacterial Biotransformation [16]: Compound metabolized
Bacterial Biotransformation [17]: Compound metabolized
Bacterial Biotransformation [18]: Compound NOT metabolized
Bacterial Biotransformation [19]: Compound NOT metabolized
Bacterial Biotransformation [20]: Compound NOT metabolized

OCCOCCN1CCN(C2=Nc3ccccc3Sc3ccccc32)CC1 [QUETIAPINE]
Bacterial Biotransformation [1]: Compound NOT metabolized
Bacterial Biotransformation [2]: Compound NOT metabolized
Bacterial Biotransformation [3]: Compound NOT metabolized
Bacterial Biotransformation [4]: Compound metabolized
Bacterial Biotransformation [5]: Compound metabolized
Bacterial Biotransformation [6]: Compound NOT metabolized
Bacterial Biotransformation [7]: Compound NOT metabolized
Bacterial Biotransformation [8]: Compound NOT metabolized
Bacterial Biotransformation [9]: Compound NOT metabolized
Bacterial Biotransformation [10]: Compound NOT metabolized
Bacterial Biotransformation [11]: Compound NOT metabolized
Bacterial Biotransformation [12]: Compound metabolized
Bacterial Biotransformation [13]: Compound NOT metabolized
Bacterial Biotransformation [14]: Compound NOT metabolized
Bacterial Biotransformation [15]: Compound NOT metabolized
Bacterial Biotransformation [16]: Compound metabolized
Bacterial Biotransformation [17]: Compound metabolized
Bacterial Biotransformation [18]: Compound NOT metabolized
Bacterial Biotransformation [19]: Compound NOT metabolized
Bacterial Biotransformation [20]: Compound NOT metabolized

COc1cc2nc(N(C)CCCNC(=O)C3CCCO3)nc(N)c2cc1OC (stereo not given) [ALFUZOSIN]
Bacterial Biotransformation [1]: Compound metabolized
Bacterial Biotransformation [2]: Compound NOT metabolized
Bacterial Biotransformation [3]: Compound NOT metabolized
Bacterial Biotransformation [4]: Compound metabolized
Bacterial Biotransformation [5]: Compound metabolized
Bacterial Biotransformation [6]: Compound NOT metabolized
Bacterial Biotransformation [7]: Compound NOT metabolized
Bacterial Biotransformation [8]: Compound NOT metabolized
Bacterial Biotransformation [9]: Compound metabolized
Bacterial Biotransformation [10]: Compound NOT metabolized
Bacterial Biotransformation [11]: Compound metabolized
Bacterial Biotransformation [12]: Compound metabolized
Bacterial Biotransformation [13]: Compound metabolized
Bacterial Biotransformation [14]: Compound NOT metabolized
Bacterial Biotransformation [15]: Compound NOT metabolized
Bacterial Biotransformation [16]: Compound metabolized
Bacterial Biotransformation [17]: Compound metabolized
Bacterial Biotransformation [18]: Compound NOT metabolized
Bacterial Biotransformation [19]: Compound NOT metabolized
Bacterial Biotransformation [20]: Compound NOT metabolized
